{"source": "patent US7163702B1", "about": "(priority 2004, dated 2007)", "origin": "cited, not measured here", "settings": "human, in vivo", "data": [{"smiles": "N=C(N)c1ccc(OCCCCCOc2ccc(C(=N)N)cc2)cc1", "note": "[pentamidine]", "values": [{"measurement": "incidence of adverse reactions", "value": "around 50%"}]}]}
